Test results taken from article PMC5720837, “Identification of a 4-fluorobenzyl L-valinate amide benzoxaborole (AN11736) as a potential development candidate for the treatment of Animal African Trypanosomiasis (AAT)” (Bioorganic & Medicinal Chemistry Letters, 2018).

Tested on: Trypanosoma vivax (T. vivax STIB719/ILRAD 560 strain), bloodstream form
Test: Whole cell Alamar Blue assay, T. vivax (48 h ex vivo)
Assay type: cell-based
Details: Trypanosoma vivax; T. vivax STIB719/ILRAD 560, 48 h ex vivo Alamar Blue assay
Description: (§1) Activity of compounds 1–71 against T. congolense and T. vivax was determined using the whole cell assays as described ^6 and their IC50 values are summarized in Table 1.
(§2) [6] Assay methods for determination of T. c. and T. v. […] Culture media consisted of complete HMI-9 (IMDM) with 20% bovine serum. To ensure log growth phase, trypanosomes were sub-cultured at appropriate dilutions every 2–3 days. Bloodstream form Trypanosoma vivax (T. vivax) cannot be cultured axenically, therefore trypanosomes (T. vivax STIB719/ILRAD 560 strain) were harvested from a highly parasitemia mouse via cardiac puncture and used directly in the ex vivo drug sensitivity assay on the same day. […] Parasite starting concentrations of 2 × 10^5 (T. c.) and 4 × 10^5 (T. v.) were calculated respectively, using a cell analyzer system or haemo-cytometer, followed by quantification at 536 nm excitation and 588 nm emission wavelengths using a […] reader. Test compounds were prepared as 10 mg/mL DMSO stocks for each assay run. Compounds were assayed in at least three separate, independent test runs and an 11-point dilution curve was used to determine the IC50 values. Data points were averaged to generate sigmoidal dose-response curves and IC50 values were determined using Softmax Pro 5.2 software.

SMILES	IC50 [nM]
CC(C)c1c(C(=O)N[C@H](C(=O)OCc2ccc(F)cc2)C(C)C)ccc2c1B(O)OC2 [Compound 26]	0.05
Cc1c(C(=O)N[C@H](C(=O)OCc2ccc(F)cc2)C(C)(C)O)ccc2c1B(O)OC2 [Compound 29]	0.1
Cc1c(C(=O)NC(C(=O)OCc2ccc(F)cc2)C(C)(C)F)ccc2c1B(O)OC2 (centres unmarked) [Compound 30]	0.25
Cc1c(C(=O)N[C@H](C(=O)OCc2ccc(C(F)(F)F)nc2)C(C)C)ccc2c1B(O)OC2 [Compound 33]	26
Cc1c(C(=O)N[C@H](C(=O)OCc2ccc(C(F)(F)F)cn2)C(C)C)ccc2c1B(O)OC2 [Compound 34]	0.07
Cc1c(C(=O)N[C@H](C(=O)OCc2ccc(F)cn2)C(C)C)ccc2c1B(O)OC2 [Compound 35]	0.09

Tested on: T. c. parasites (STIB736/IL1180 strain)
Test: In vivo mouse model of T. congolense infection
Design: species or system NMRI female mice
Details: 1 × 10 mg/kg, intraperitoneal, monitored 60 days post treatment
Description: (§3) Selected compounds were screened in both mouse and bovine in vitro metabolic stability assays (mouse S9 and bovine S9), as summarized in Table 2. These two species were chosen because the primary in vivo assays were conducted in mice, and the target animal of this research program is cattle. […] We evaluated the efficacy of selected compounds in two in vivo mouse models of infection, against T. congolense and T. vivax, respectively. Mice were infected with either 1 × 10^5 T. c. parasites or 1 × 10^4 T. v. parasites, and then treated with a test compound via intraperitoneal administration for 1, 2 or 4 consecutive days. The mice were then monitored for the presence of parasitemia for up to 60 days post treatment.[7] We tested in T. c. model first, then followed up with T. v. for interesting compounds. […] We selected compound 5 (AN11736) to progress to exploratory studies to determine the efficacy and safety in a preliminary formulation against induced infections of T. vivax and T. congolense in cattle.[8]
(§4) [7] Methods for testing compound efficacy in mouse models: In vivo mouse efficacy studies were performed at the Swiss TPH, using established mouse models of infection for T. c. and T. v. NMRI female mice were independently infected either with 1 × 10^5T. c. parasites/mouse (STIB736/IL1180 strain) or 1 × 10^4T. v. parasites/mouse (STIB719/ILRAD560 strain) using an intraperitoneal route. Parasitemia was allowed to develop over 7 days (T. c.) or 3 days (T. v.), respectively, before treatment was administered. Compounds were administered via intraperitoneal injection in 10% DMSO/water. Four mice were used per treatment group. Mice were monitored for the presence of trypanosomes, via tail blood examination microscopically with twice-per-week parasitemia checks for 60 days post treatment. Parasitemia was graded on a scale of 0–3, with 0 indicating no trypanosomes seen in 20 fields of view, 1 indicating the presence of 1–5 trypanosomes per field, 2 indicating the presence of 6–20 trypanosomes per field and 3 indicating greater than 20 trypanosomes per field. Mice scoring 2 or 3 were immediately euthanized. After 60 days, aparasitemic mice were considered cured. Untreated control mice survive on average for 10 and 6 days post infection for T. c. and T. v., respectively. All in vivo mouse experiments were conducted in accordance with the strict guidelines set out by the Swiss Federal Veterinary Office, under the ethical approval of license number #2813.

SMILES	Efficacy in mouse model T. c., n/m (mice survived / total mice in group)
CC(C)c1c(C(=O)N[C@H](C(=O)OCc2ccc(F)cc2)C(C)C)ccc2c1B(O)OC2 [Compound 26]	0/4 (1 × 10)
Cc1c(C(=O)N[C@H](C(=O)OCc2ccc(F)cc2)C(C)(C)O)ccc2c1B(O)OC2 [Compound 29]	0/4 (1 × 10)
Cc1c(C(=O)NC(C(=O)OCc2ccc(F)cc2)C(C)(C)F)ccc2c1B(O)OC2 (centres unmarked) [Compound 30]	0/4 (1 × 10)
Cc1c(C(=O)N[C@H](C(=O)OCc2ccc(C(F)(F)F)nc2)C(C)C)ccc2c1B(O)OC2 [Compound 33]	3/4 (1 × 10)
Cc1c(C(=O)N[C@H](C(=O)OCc2ccc(C(F)(F)F)cn2)C(C)C)ccc2c1B(O)OC2 [Compound 34]	2/4 (1 × 10)
Cc1c(C(=O)N[C@H](C(=O)OCc2ccc(F)cn2)C(C)C)ccc2c1B(O)OC2 [Compound 35]	0/4 (1 × 10)

Same assay, conditions: single dose of 10 mg/kg, IP

SMILES	curative efficacy in the T. c.-infected mouse model [%]
Cc1c(C(=O)N[C@H](C(=O)OCc2ccc(C(F)(F)F)cn2)C(C)C)ccc2c1B(O)OC2 [Compound 34]	≥ 50

Tested on: not listed separately
Test: In vitro metabolic stability, bovine S9
Assay type: in vitro ADME
Details: S9 fraction
Description: as §3

SMILES	microsomal CLint [µL/min/mg]
CC(C)c1c(C(=O)N[C@H](C(=O)OCc2ccc(F)cc2)C(C)C)ccc2c1B(O)OC2 [Compound 26]	32
Cc1c(C(=O)N[C@H](C(=O)OCc2ccc(F)cc2)C(C)(C)O)ccc2c1B(O)OC2 [Compound 29]	< 1
Cc1c(C(=O)NC(C(=O)OCc2ccc(F)cc2)C(C)(C)F)ccc2c1B(O)OC2 (centres unmarked) [Compound 30]	3.1
Cc1c(C(=O)N[C@H](C(=O)OCc2ccc(C(F)(F)F)nc2)C(C)C)ccc2c1B(O)OC2 [Compound 33]	2
Cc1c(C(=O)N[C@H](C(=O)OCc2ccc(C(F)(F)F)cn2)C(C)C)ccc2c1B(O)OC2 [Compound 34]	4.8
Cc1c(C(=O)N[C@H](C(=O)OCc2ccc(F)cn2)C(C)C)ccc2c1B(O)OC2 [Compound 35]	7.8

Tested on: not listed separately
Test: In vitro metabolic stability, mouse S9
Assay type: in vitro ADME
Details: S9 fraction
Description: as §3

SMILES	microsomal CLint [µL/min/mg]
CC(C)c1c(C(=O)N[C@H](C(=O)OCc2ccc(F)cc2)C(C)C)ccc2c1B(O)OC2 [Compound 26]	32
Cc1c(C(=O)N[C@H](C(=O)OCc2ccc(F)cc2)C(C)(C)O)ccc2c1B(O)OC2 [Compound 29]	< 1
Cc1c(C(=O)NC(C(=O)OCc2ccc(F)cc2)C(C)(C)F)ccc2c1B(O)OC2 (centres unmarked) [Compound 30]	3.7
Cc1c(C(=O)N[C@H](C(=O)OCc2ccc(C(F)(F)F)nc2)C(C)C)ccc2c1B(O)OC2 [Compound 33]	6.3
Cc1c(C(=O)N[C@H](C(=O)OCc2ccc(C(F)(F)F)cn2)C(C)C)ccc2c1B(O)OC2 [Compound 34]	11.8
Cc1c(C(=O)N[C@H](C(=O)OCc2ccc(F)cn2)C(C)C)ccc2c1B(O)OC2 [Compound 35]	5.2

Tested on: Trypanosoma congolense (T. congolense IL-3000 strain), bloodstream form
Test: Whole cell Alamar Blue assay, T. congolense (72 h in vitro)
Assay type: cell-based
Details: Trypanosoma congolense, 72 h, T. congolense IL-3000, 72 h in vitro Alamar Blue assay
Description: as §1, §2

SMILES	IC50 [nM]
CC(C)c1c(C(=O)N[C@H](C(=O)OCc2ccc(F)cc2)C(C)C)ccc2c1B(O)OC2 [Compound 26]	2.3
Cc1c(C(=O)N[C@H](C(=O)OCc2ccc(F)cc2)C(C)(C)O)ccc2c1B(O)OC2 [Compound 29]	0.26
Cc1c(C(=O)NC(C(=O)OCc2ccc(F)cc2)C(C)(C)F)ccc2c1B(O)OC2 (centres unmarked) [Compound 30]	0.09
Cc1c(C(=O)N[C@H](C(=O)OCc2ccc(C(F)(F)F)nc2)C(C)C)ccc2c1B(O)OC2 [Compound 33]	0.28
Cc1c(C(=O)N[C@H](C(=O)OCc2ccc(C(F)(F)F)cn2)C(C)C)ccc2c1B(O)OC2 [Compound 34]	0.14
Cc1c(C(=O)N[C@H](C(=O)OCc2ccc(F)cn2)C(C)C)ccc2c1B(O)OC2 [Compound 35]	0.15

Tested on: T. v. parasites (STIB719/ILRAD560 strain)
Test: In vivo mouse model of T. vivax infection
Design: species or system NMRI female mice
Details: 1 × 10 mg/kg, intraperitoneal, monitored 60 days post treatment
Description: as §3, §4

SMILES	Efficacy in mouse model T. v., n/m (mice survived / total mice in group)
Cc1c(C(=O)N[C@H](C(=O)OCc2ccc(C(F)(F)F)nc2)C(C)C)ccc2c1B(O)OC2 [Compound 33]	4/4 (1 × 10)
Cc1c(C(=O)N[C@H](C(=O)OCc2ccc(C(F)(F)F)cn2)C(C)C)ccc2c1B(O)OC2 [Compound 34]	4/4 (1 × 10)

Same assay, conditions: single dose of 10 mg/kg, IP

SMILES	curative efficacy in the T. v.-infected mouse model [%]
Cc1c(C(=O)N[C@H](C(=O)OCc2ccc(C(F)(F)F)nc2)C(C)C)ccc2c1B(O)OC2 [Compound 33]	100
Cc1c(C(=O)N[C@H](C(=O)OCc2ccc(C(F)(F)F)cn2)C(C)C)ccc2c1B(O)OC2 [Compound 34]	100
